Experimental data: ChEMBL document CHEMBL1155783, “Novel sterically hindered cannabinoid CB1 receptor ligands” (Bioorg Med Chem, 2008)
Active and inactive are the calls of the source. No cut-off for these calls is given here.

Legend:
Cannabinoid receptor 2 = Cannabinoid receptor 2 (Homo sapiens, UniProt P34972); test: Displacement of [3H]CP-55940 from human recombinant CB2 receptor expressed in HEK cells; format: cell-based, HEK293
Cannabinoid receptor 1 = Cannabinoid receptor 1 (Homo sapiens, UniProt P21554); test: biochemical; format: cell-based, HEK293
Description: Displacement of [3H]CP-55940 from human recombinant CB1 receptor expressed in HEK cells

[1] = target: Cannabinoid receptor 1 (Mus musculus) (UniProt P47746); test: Agonist activity at mouse CB1 receptor in N18TG2 cells assessed as inhibition of forskolin-stimulated cAMP formation at 1 uM in presence of 0.1 uM WIN-55212-2
Homo sapiens = species: Homo sapiens; test: Selectivity of Ki for human recombinant CB1 receptor over Ki for human recombinant CB2 receptor

Sequence of Cannabinoid receptor 1 (P21554 whole entry): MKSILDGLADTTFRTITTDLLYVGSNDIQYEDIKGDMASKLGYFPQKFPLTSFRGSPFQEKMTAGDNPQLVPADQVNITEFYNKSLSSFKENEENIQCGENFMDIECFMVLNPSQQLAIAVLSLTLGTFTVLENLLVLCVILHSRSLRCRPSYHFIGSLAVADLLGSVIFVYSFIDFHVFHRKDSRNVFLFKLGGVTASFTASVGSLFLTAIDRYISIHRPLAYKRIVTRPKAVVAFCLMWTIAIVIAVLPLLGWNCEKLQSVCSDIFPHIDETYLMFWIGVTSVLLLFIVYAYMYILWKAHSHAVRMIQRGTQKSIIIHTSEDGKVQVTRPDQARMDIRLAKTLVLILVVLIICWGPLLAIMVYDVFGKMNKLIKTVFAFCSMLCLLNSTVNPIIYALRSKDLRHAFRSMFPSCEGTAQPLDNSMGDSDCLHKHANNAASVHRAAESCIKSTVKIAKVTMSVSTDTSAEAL
Sequence of Cannabinoid receptor 2 (P34972 whole entry): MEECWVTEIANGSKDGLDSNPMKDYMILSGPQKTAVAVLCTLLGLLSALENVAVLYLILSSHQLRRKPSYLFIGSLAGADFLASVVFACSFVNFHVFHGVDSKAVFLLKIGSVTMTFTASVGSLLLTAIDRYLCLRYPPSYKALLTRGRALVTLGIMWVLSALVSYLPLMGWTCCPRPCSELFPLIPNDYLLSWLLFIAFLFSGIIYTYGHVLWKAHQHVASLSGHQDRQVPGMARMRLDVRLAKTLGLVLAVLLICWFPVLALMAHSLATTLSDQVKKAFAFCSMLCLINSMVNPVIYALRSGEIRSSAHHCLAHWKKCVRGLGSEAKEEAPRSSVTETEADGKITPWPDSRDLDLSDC
Sequence of Cannabinoid receptor 1 (Mus musculus) (P47746 whole entry, looked up): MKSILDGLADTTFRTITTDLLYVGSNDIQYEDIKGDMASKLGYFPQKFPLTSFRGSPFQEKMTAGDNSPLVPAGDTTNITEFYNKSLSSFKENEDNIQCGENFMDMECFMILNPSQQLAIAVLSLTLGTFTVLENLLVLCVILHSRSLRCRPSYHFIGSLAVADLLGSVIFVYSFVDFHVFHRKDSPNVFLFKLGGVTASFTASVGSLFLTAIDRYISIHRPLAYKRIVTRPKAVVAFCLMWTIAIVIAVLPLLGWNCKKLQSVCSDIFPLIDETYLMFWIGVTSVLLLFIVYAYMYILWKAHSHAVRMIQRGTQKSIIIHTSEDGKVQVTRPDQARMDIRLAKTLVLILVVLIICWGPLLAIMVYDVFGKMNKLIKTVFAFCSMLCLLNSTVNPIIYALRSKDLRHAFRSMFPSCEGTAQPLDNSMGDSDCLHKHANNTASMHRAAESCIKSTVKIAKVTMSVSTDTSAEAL

SMILES	Ki (Cannabinoid receptor 2)	Ki (Cannabinoid receptor 1)	Activity [1]	Ratio Ki (Homo sapiens)
O=C(NCCC(c1ccccc1)c1ccccc1)C(c1ccccc1)c1ccc(Br)cc1 (stereo unspecified)	> 7900 nM	220 nM	–	–
O=C(NCCC(c1ccccc1)c1ccccc1)C(c1ccccc1)c1ccccc1	7900 nM	58 nM	inactive	140
O=C(NCCC(c1ccccc1)c1ccccc1)C(Cl)(c1ccccc1)c1ccccc1	1400 nM	280 nM	–	–
CC(C(=O)NCCC(c1ccccc1)c1ccccc1)(c1ccccc1)c1ccccc1	290 nM	560 nM	–	–
O=C(Cc1ccccc1)NCCC(c1ccccc1)c1ccccc1	> 7900 nM	560 nM	–	–
O=C(Cc1ccc(Br)cc1)NCCC(c1ccccc1)c1ccccc1	1300 nM	800 nM	–	–
O=C(NCCCc1ccccc1)C(c1ccccc1)c1ccc(Br)cc1 (stereo unspecified)	1800 nM	1900 nM	–	–
O=C(NCCC(c1ccccc1)c1ccccc1)C(c1ccccc1)c1ccc(O)cc1 (stereo unspecified)	1100 nM	560 nM	–	–
COc1ccc(C(C(=O)NCCC(c2ccccc2)c2ccccc2)c2ccccc2)cc1 (stereo unspecified)	790 nM	560 nM	–	–
O=C(NCCC(c1ccccc1)c1ccccc1)C(O)(c1ccccc1)c1ccccc1	2300 nM	2200 nM	–	–
O=C(NCCCc1ccccc1)C(c1ccccc1)c1ccc(Cl)cc1 (stereo unspecified)	2400 nM	2200 nM	–	–
Cc1ccc(C(C(=O)NCCC(c2ccccc2)c2ccccc2)c2ccccc2)cc1 (stereo unspecified)	650 nM	560 nM	–	–
Nc1ccc(C(C(=O)NCCC(c2ccccc2)c2ccccc2)c2ccccc2)cc1 (stereo unspecified)	1200 nM	900 nM	–	–
O=C(NCCC(c1ccccc1)c1ccccc1)C(c1ccccc1)c1ccc([N+](=O)[O-])cc1 (stereo unspecified)	790 nM	560 nM	–	–
O=C(NCCCc1ccccc1)C(c1ccccc1)c1ccccc1	> 7900 nM	3400 nM	–	–
O=C(Cc1ccc(Cl)cc1)NCCC(c1ccccc1)c1ccccc1	2400 nM	1600 nM	–	–
O=C(NCCC(c1ccccc1)c1ccccc1)C(c1ccccc1)c1ccc(Cl)cc1 (stereo unspecified)	> 7900 nM	560 nM	–	–
